Structures are written as SMILES.

What is called logP is the decadic logarithm of the partition coefficient of the neutral form, usually between octanol and water. `C#CCOc1cc(OC(=O)N2CCCC2)c(Cl)cc1Cl` registered a logP of 3.82. The compound `COC(=O)c1cc(Oc2cc(C(F)(F)F)ccc2Cl)ccc1[N+](=O)[O-]` returned a log partition coefficient (logP) of 4.21. As for `C=COC(=O)[C@@H](C)Oc1cc(Oc2ccc(C(F)(F)F)cc2Cl)ccc1[N+](=O)[O-]`, the figure is 4.54; as for `CCOC(=O)C(C)OC(=O)c1cc(Oc2ccc(C(F)(F)F)cc2Cl)ccc1[N+](=O)[O-]` (stereo not drawn), 4.81; as for `O=C(O)COC(=O)c1cc(Oc2ccc(C(F)(F)F)cc2Cl)ccc1[N+](=O)[O-]`, 4.27. To `O=C(Oc1ccc(Cl)cc1Cl)N1CCCC1` belongs 3.94. On to `O=C(Oc1ccc(Cl)cc1)N1CCCC1`, for which the log partition coefficient (logP) came out at 3.38. The compound `O=C(Oc1ccccc1Cl)N1CCCC1` showed a lipophilicity (logP) of 3.13.

`O=[N+]([O-])c1ccc(Oc2ccc(Cl)cc2Cl)cc1` showed a logP of 4.64. On to `Nc1c([N+](=O)[O-])ccc(Oc2ccccc2)c1Cl`, for which the logP is 4.04. As for `C#CCOc1cc(OC(=O)N2CCCCC2)c(Cl)cc1Cl`, the figure is 4.25; as for `COC(=O)c1cc(S(=O)(=O)c2ccc(C(F)(F)F)cc2Cl)ccc1[N+](=O)[O-]`, 3.57; as for `COC(=O)c1cc(Oc2ccc(C(F)(F)F)cc2Cl)ccc1[N+](=O)[O-]`, 4.26. As for `CC(C)OC(=O)c1cc(OC(=O)N2CCCC2)c(Cl)cc1Cl`, the figure is 4.67. As for `C#CCOC1=Nc2ccc(OC(=O)N3CCCC3)cc2OC1`, the figure is 2.93. `O=[N+]([O-])c1ccc(Oc2ccc(C(F)(F)F)cc2Cl)cc1Oc1ccoc1` yielded a logP of 4.33. As for `CC(C)OC(=O)c1cc(OC(=O)N2CCCC2)c(F)cc1Cl`, the figure is 4.2.

`O=[N+]([O-])c1ccc(Oc2ccc(C(F)(F)F)cc2Cl)cc1` came in with a logP of 4.54. To `C#CCOc1cc(OC(=O)N(CC)CC)c(Cl)cc1Cl` belongs 3.95; to `O=C(Oc1cc(O)c(Cl)cc1Cl)N1CCCC1`, 2.98; to `O=C(Oc1ccccc1)N1CCCC1`, 2.73.

Take `COC(=O)CC(C)(N=O)c1cc(Oc2ccc(C(F)(F)F)cc2Cl)ccc1[N+](=O)[O-]` (stereo not drawn): the logP came out at 4.54. The compound `COC(=O)c1cc(OC(=O)N2CCCC2)c(Cl)cc1Cl` registered a lipophilicity (logP) of 3.95. To `C#CCOc1cc(OC(=O)N2CCC(F)(F)CC2)c(Cl)cc1Cl` belongs 3.57; to `COC(=O)c1cc(S(=O)c2ccc(C(F)(F)F)cc2Cl)ccc1[N+](=O)[O-]` (stereo not drawn), 3.65.

`Cc1cccc(Oc2ccc([N+](=O)[O-])cc2)c1`: the logP is 4.4.

For the compound `C#CCOc1cc(OC(=O)N2CCC(F)(F)C2)c(Cl)cc1Cl`, the logP was determined as 3.42. `COC(=O)c1cc(Oc2ccc(C(F)(F)F)cc2Cl)ccc1Cl` showed a log partition coefficient (logP) of 5.04.

Source of the values: the SangsterLogP compilation.
